target: T1, RORγt (hRORC LBD) (Homo sapiens, UniProt P51449); assay: RGA Assay: nuclear receptor transactivation assay, RORγt transactivation of a luciferase reporter; type: cell-based; conditions: transiently transfected HEK 293 cells, Gal4DBD hRORC LBD, 20-24 hours incubation
T1 construct: expressed in transfected cells; host or cells: HEK 293 (transient cotransfection with pGL4.3 luc2P/GAL4UAS/Hygro reporter)
T1 sequence (P51449 269-508 limits assumed): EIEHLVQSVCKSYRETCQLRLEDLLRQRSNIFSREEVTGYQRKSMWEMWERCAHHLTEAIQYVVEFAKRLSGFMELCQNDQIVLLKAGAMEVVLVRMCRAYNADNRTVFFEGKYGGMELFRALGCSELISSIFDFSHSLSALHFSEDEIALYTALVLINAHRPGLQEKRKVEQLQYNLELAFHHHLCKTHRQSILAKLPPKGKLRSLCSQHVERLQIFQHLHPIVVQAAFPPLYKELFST
Description: A nuclear receptor transactivation assay was performed to quantitate the ability of test compounds to inhibit RORγt transactivation of a luciferase reporter. A similar assay is described in: Khan et al., Bioorganic & Medicinal Chemistry Letters 23 (2013), 532-536. The system uses transiently transfected HEK 293 cells cotransfected with two plasmids (pGL4.3, luc2P/GAL4UAS/Hygro, and pBIND, Gal4DBD hRORC LBD1-3). The positive control is co-transiently transfected with both plasmids, and the negative control contains the pGL4.3 promoter sequence. Assays were assembled in 384 well plates where transiently transfected cells and test compound at varying concentrations were incubated for 20-24 hours. The next day, assays plates are taken out and equilibrated at RT for 20-30 minutes. Bright-Glo™ Luciferase Assay System is used to detect Luciferase production. After addition of Bright GLO detection reagent, the plates were incubated at RT for 20 minutes. The plates were read on an Envision plate reader to measure luminescence signal. The RLU signal is converted to POC relative to control and blank wells.
Compound Dilution Buffer:
Bright Glo Luciferase Assay System: Promega #E2620
Thaw lysis buffer provided in kit, add 100 mL lysis buffer to substrate powder.

| SMILES | IC50 [µM] |
| --- | --- |
| CNS(=O)(=O)c1ccc(CNC(=O)N2CC3(CCCC3)c3cc(-c4ccc(F)cc4C)ccc32)cc1 [Example 1] | 0.84 |
| CNS(=O)(=O)c1ccc(CNC(=O)N2CC3(CCCC3)c3cc(-c4ccccc4C)ccc32)cc1 [Example 2] | 0.92 |
| CNS(=O)(=O)c1ccc(CNC(=O)N2CC3(CCCC3)c3cc(-c4cc(C)ccc4C)ccc32)cc1 [Example 3] | 1 |
| CNS(=O)(=O)c1ccc(CNC(=O)N2CC3(CCCC3)c3cc(-c4cccc5cccnc45)ccc32)cc1 [Example 4] | 1.5 |
| CNS(=O)(=O)c1ccc(CNC(=O)N2CC3(CCCC3)c3cc(-c4cccc(N5CCCC5)c4)ccc32)cc1 [Example 5] | 1.6 |
| CNS(=O)(=O)c1ccc(CNC(=O)N2CC3(CCCC3)c3cc(-c4ccc(OC)cc4C(F)(F)F)ccc32)cc1 [Example 6] | 0.31 |
| CNS(=O)(=O)c1ccc(CNC(=O)N2CC3(CCCC3)c3cc(-c4cc(F)ccc4C(F)(F)F)ccc32)cc1 [Example 7] | 0.34 |
| CNS(=O)(=O)c1ccc(CNC(=O)N2CC3(CCCC3)c3cc(-c4ccc(F)cc4C(F)(F)F)ccc32)cc1 [Example 8] | 0.42 |
| CCc1ccccc1-c1ccc2c(c1)C1(CCCC1)CN2C(=O)NCc1ccc(S(=O)(=O)NC)cc1 [Example 9] | 0.61 |
| CNS(=O)(=O)c1ccc(CNC(=O)N2CC3(CCCC3)c3cc(-c4ccccc4C(F)(F)F)ccc32)cc1 [Example 10] | 0.64 |
| CNS(=O)(=O)c1ccc(CNC(=O)N2CC3(CCCC3)c3cc(-c4ccc(O)cc4C)ccc32)cc1 [Example 11] | 0.69 |
| CCOc1ccc(-c2ccc3c(c2)C2(CCCC2)CN3C(=O)NCc2ccc(S(=O)(=O)NC)cc2)c(C)c1 [Example 12] | 0.78 |
| CNS(=O)(=O)c1ccc(CNC(=O)N2CC3(CCCC3)c3cc(-c4cc(S(=O)(=O)N(C)C)ccc4C)ccc32)cc1 [Example 13] | 0.84 |
| CNS(=O)(=O)c1ccc(CNC(=O)N2CC3(CCCC3)c3cc(-c4ccc(C)cc4C)ccc32)cc1 [Example 14] | 0.87 |
| CNS(=O)(=O)c1ccc(CNC(=O)N2CC3(CCCC3)c3cc(-c4ccc(C#N)cc4C)ccc32)cc1 [Example 15] | 0.94 |
| CNS(=O)(=O)c1ccc(CNC(=O)N2CC3(CCCC3)c3cc(-c4cc(F)ccc4C)ccc32)cc1 [Example 16] | 0.96 |
| CNS(=O)(=O)c1ccc(CNC(=O)N2CC3(CCCC3)c3cc(-c4c(C)cccc4C)ccc32)cc1 [Example 17] | 1 |
| CNS(=O)(=O)c1ccc(CNC(=O)N2CC3(CCCC3)c3cc(-c4cncnc4C(C)C)ccc32)cc1 [Example 18] | 1 |
| CNS(=O)(=O)c1ccc(CNC(=O)N2CC3(CCCC3)c3cc(-c4ccccc4C(=O)OC)ccc32)cc1 [Example 19] | 1.1 |
| CNS(=O)(=O)c1ccc(CNC(=O)N2CC3(CCCC3)c3cc(-c4ccccc4COC)ccc32)cc1 [Example 20] | 1.1 |
| CCOCc1ccccc1-c1ccc2c(c1)C1(CCCC1)CN2C(=O)NCc1ccc(S(=O)(=O)NC)cc1 [Example 21] | 1.1 |

| SMILES | IC50 [µM] |
| --- | --- |
| CNS(=O)(=O)c1ccc(CNC(=O)N2CC3(CCCC3)c3cc(-c4cccc(C)c4C)ccc32)cc1 [Example 22] | 1.2 |
| CNS(=O)(=O)c1ccc(CNC(=O)N2CC3(CCCC3)c3cc(-c4ccc(OC)cc4C)ccc32)cc1 [Example 23] | 1.2 |
| CCOC(=O)c1ccccc1-c1ccc2c(c1)C1(CCCC1)CN2C(=O)NCc1ccc(S(=O)(=O)NC)cc1 [Example 24] | 1.3 |
| CNS(=O)(=O)c1ccc(CNC(=O)N2CC3(CCCC3)c3cc(-c4cnccc4C(F)(F)F)ccc32)cc1 [Example 25] | 1.3 |
| CNS(=O)(=O)c1ccc(CNC(=O)N2CC3(CCCC3)c3cc(-c4cc(OC)c(OC)cc4C(=O)OC)ccc32)cc1 [Example 26] | 1.4 |
| CNS(=O)(=O)c1ccc(CNC(=O)N2CC3(CCCC3)c3cc(-c4ccccc4C(C)=O)ccc32)cc1 [Example 27] | 1.7 |
| CCS(=O)(=O)c1ccc(CNC(=O)N2CC3(CCCC3)c3cc(-c4ccc(F)cc4C)ccc32)cc1 [Example 28] | 1.2 |
| CNS(=O)(=O)c1ccc(CNC(=O)N2CC3(CCCC3)c3cc(-c4cc5cnn(C)c5cc4C)ccc32)cc1 [Example 29] | 0.72 |
| CNS(=O)(=O)c1ccc(CNC(=O)N2CC3(CCCC3)c3cc(-c4cc5c(cnn5C)cc4C)ccc32)cc1 [Example 30] | 0.74 |
| CNS(=O)(=O)c1ccc(CNC(=O)N2CC3(CCCC3)c3cc(-c4ccccc4C(F)F)ccc32)cc1 [Example 31] | 0.74 |
| CNS(=O)(=O)c1ccc(CNC(=O)N2CC3(CCCC3)c3cc(-c4c(C)ccc5c4cnn5C)ccc32)cc1 [Example 32] | 0.75 |
| CNS(=O)(=O)c1ccc(CNC(=O)N2CC3(CCCC3)c3cc(-c4ccccc4-c4cnco4)ccc32)cc1 [Example 33] | 0.75 |
| CNS(=O)(=O)c1ccc(CNC(=O)N2CC3(CCCC3)c3cc(-c4c(F)cccc4C#N)ccc32)cc1 [Example 34] | 0.79 |
| CNS(=O)(=O)c1ccc(CNC(=O)N2CC3(CCCC3)c3cc(-c4cc(C(C)=O)ccc4C)ccc32)cc1 [Example 35] | 0.89 |
| CNS(=O)(=O)c1ccc(CNC(=O)N2CC3(CCCC3)c3cc(-c4ccncc4C(F)(F)F)ccc32)cc1 [Example 36] | 0.89 |
| CNS(=O)(=O)c1ccc(CNC(=O)N2CC3(CCCC3)c3cc(-c4ccc(N)cc4C(=O)OC)ccc32)cc1 [Example 37] | 0.92 |
| CNS(=O)(=O)c1ccc(CNC(=O)N2CC3(CCCC3)c3cc(-c4cccc(C#N)c4C)ccc32)cc1 [Example 38] | 0.97 |
| CNS(=O)(=O)c1ccc(CNC(=O)N2CC3(CCCC3)c3cc(-c4ccc(C)cc4C#N)ccc32)cc1 [Example 39] | 1 |
| CNS(=O)(=O)c1ccc(CNC(=O)N2CC3(CCCC3)c3cc(-c4ccc5c(cnn5C)c4C)ccc32)cc1 [Example 40] | 1.1 |
| CNS(=O)(=O)c1ccc(CNC(=O)N2CC3(CCCC3)c3cc(-c4cc(C#N)ccc4C)ccc32)cc1 [Example 41] | 1.1 |
| CNS(=O)(=O)c1ccc(CNC(=O)N2CC3(CCCC3)c3cc(-c4ccc(CO)cc4C)ccc32)cc1 [Example 42] | 1.1 |

| SMILES | IC50 [µM] |
| --- | --- |
| CNS(=O)(=O)c1ccc(CNC(=O)N2CC3(CCCC3)c3cc(-c4cccc(F)c4CC#N)ccc32)cc1 [Example 43] | 1.1 |
| CNc1ccc(-c2ccc3c(c2)C2(CCCC2)CN3C(=O)NCc2ccc(S(=O)(=O)NC)cc2)c(C)c1 [Example 44] | 1.1 |
| CNS(=O)(=O)c1ccc(CNC(=O)N2CC3(CCCC3)c3cc(-c4ccccc4CC#N)ccc32)cc1 [Example 45] | 1.2 |
| CNS(=O)(=O)c1ccc(CNC(=O)N2CC3(CCCC3)c3cc(-c4cc(F)ccc4CC#N)ccc32)cc1 [Example 46] | 1.3 |
| CNS(=O)(=O)c1ccc(CNC(=O)N2CC3(CCCC3)c3cc(-c4cccc5[nH]nc(C)c45)ccc32)cc1 [Example 47] | 1.5 |
| CNS(=O)(=O)c1ccc(CNC(=O)N2CC3(CCCC3)c3cc(-c4ccc5[nH]ncc5c4C)ccc32)cc1 [Example 48] | 1.6 |
| CNS(=O)(=O)c1ccc(CNC(=O)N2CC3(CCCC3)c3cc(-c4cnc(OC)cc4C)ccc32)cc1 [Example 49] | 1.9 |
| CNS(=O)(=O)c1ccc(CNC(=O)N2CC3(CCCC3)c3cc(-c4ccc(NC(C)=O)cc4C)ccc32)cc1 [Example 50] | 1.9 |
| CCC1(CC)CN(C(=O)NCc2ccc(S(=O)(=O)NC)cc2)c2ccc(-c3ccc(F)cc3C)cc21 [Example 52] | 1.1 |
| CCC1(C)CN(C(=O)NCc2ccc(S(=O)(=O)NC)cc2)c2ccc(-c3ccc(F)cc3C)cc21 (stereo not shown) [Example 53] | 1.2 |
| Cc1cc(F)ccc1-c1ccc2c(c1)C1(CCCC1)CN2C(=O)NCc1ccc(S(C)(=O)=O)cc1 [Example 54] | 1.3 |
| CNS(=O)(=O)c1ccc(CNC(=O)N2CC3(CCCCC3)c3cc(-c4ccc(F)cc4C)ccc32)cc1 [Example 55] | 1.5 |
| CNS(=O)(=O)c1ccc(CNC(=O)N2CC3(CCCC3)c3cc(-c4ccc(O)cc4C(F)(F)F)ccc32)cc1 [Example 56] | 0.4 |
| CCC1(C)CN(C(=O)NCc2ccc(S(=O)(=O)NC)cc2)c2ccc(-c3ccc(OC)cc3C(F)(F)F)cc21 (stereo not shown) [Example 57] | 0.78 |
| CNS(=O)(=O)c1ccc(CNC(=O)N2CC(C)(C)c3cc(-c4ccc(OC)cc4C(F)(F)F)ccc32)cc1 [Example 58] | 0.88 |
| CNS(=O)(=O)c1ccc(CNC(=O)N2CC(C)(CC(C)C)c3cc(-c4ccc(F)cc4C)ccc32)cc1 (stereo not shown) [Example 59] | 1.5 |
| CNS(=O)(=O)c1ccc(CNC(=O)N2CC3(CCCC3)c3cc(Oc4cc(C(F)(F)F)ccc4C)ccc32)cc1 [Example 60] | 0.25 |
| CNS(=O)(=O)c1ccc(CNC(=O)N2CC3(CCCC3)c3cc(Oc4cccc(OC(F)(F)F)c4)ccc32)cc1 [Example 61] | 0.73 |
| CNS(=O)(=O)c1ccc(CNC(=O)N2CC3(CCCC3)c3cc(Oc4ccc(F)c(OC(F)(F)F)c4)ccc32)cc1 [Example 62] | 0.97 |

From patent US9745267B2, “Compounds as modulators of RORC” (Boehringer Ingelheim International GmbH, priority 2013, dated 2017)
